According to patent US11000033B2, “Ketone or oxime compound, and herbicide” (NISSAN CHEMICAL CORPORATION, priority 2014, dated 2021):

Tests used:
Assay type in all cases: in vivo
Digitaria ciliaris = experiment: Test Example 4: herbicidal effect by soil treatment (symbol F); conditions: for F: Digitaria ciliaris, herbicidal effect grade: 320 g/ha
Outline: (§1)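 Seeds were sown in sterilized diluvial soil, covered with about 1.5 cm of soil, and the soil surface was sprayed with a water-diluted emulsion of the compound at a predetermined rate. Plants grew in a greenhouse at 25° C. to 30° C.; effects were scored visually 3 weeks after application.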

[1] = tested on: directly sowed rice plant; experiment: Test Example 3: effect on crop by foliage application, Wagner pot (symbol b); conditions: application herbicide amount 320 g/ha
Outline: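 Wagner pot (1/10000 are), alluvial soil, submerged 0.1–0.5 cm; sown E. crus-galli var. crus-galli, L. chinensis, C. difformis, rice; greenhouse 25–30 °C.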

Avena fatua = experiment: Test Example 5: herbicidal effect by foliage application, plastic box (symbol I); conditions: 320 g/ha, 3 weeks after application
Outline: (§2)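 Visual herbicidal score, taken three weeks post-application, of seedlings sprayed on the foliage with water-diluted emulsion at a predetermined amount; plants were 14 days old, greenhouse-raised at 25° C. to 30° C.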

Amaranthus retroflexus [2] = experiment: Test Example 5: herbicidal effect by foliage application, plastic box (symbol N); conditions: 320 g/ha, 3 weeks after application
Outline: as §2

Alopecurus myosuroides = experiment: Test Example 5: herbicidal effect by foliage application, plastic box (symbol J); conditions: 320 g/ha, 3 weeks after application
Outline: as §2

[3] = tested on: Echinochloa oryzacola Vasing.; experiment: Test Example 1: herbicidal activity, application before weed generation in submerged conditions (symbol A); conditions: application herbicide amount 320 g/ha
Outline: (§3)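 Ratings (5: ≥90%, near complete withering; 4: 70–<90%; 3: 40–<70%; 2: 20–<40%; 1: 5–<20%; 0: ≤5%) were assigned 3 weeks after the diluted emulsion was applied to the water surface of freshly sown, submerged pots.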

Monochoria vaginalis [4] = experiment: Test Example 1: herbicidal activity, application before weed generation in submerged conditions (symbol C); conditions: application herbicide amount 320 g/ha
Outline: as §3

Galium spurium = experiment: Test Example 5: herbicidal effect by foliage application, plastic box (symbol Q); conditions: 320 g/ha, 3 weeks after application
Outline: as §2

Amaranthus retroflexus [5] = experiment: Test Example 4: herbicidal effect by soil treatment (symbol N); conditions: for N: Amaranthus retroflexus, herbicidal effect grade: 320 g/ha
Outline: as §1

Monochoria vaginalis [6] = experiment: Test Example 2: herbicidal activity, application during weed generation in submerged conditions (symbol C); conditions: Table 23; application herbicide amount 320 g/ha; grade 0-5 by criteria of Test Example 1
Outline: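 Treatment timing was the one- to two-leaf stage, with diluted emulsifiable compound dropped onto the paddy water (depth 4 cm) over alluvial soil. All three species grew from a mixed sowing in a 25° C. to 30° C. greenhouse. Injury was judged by eye 3 weeks on.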

Cyperus difformis = experiment: Test Example 3: herbicidal effect by foliage application, Wagner pot (symbol E); conditions: application herbicide amount 320 g/ha
Outline: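 The compound, formulated as an emulsion and diluted with water to a predetermined rate, is applied uniformly to leaves of two-week-old seedlings growing in submerged alluvial soil at 25–30 °C. Rice is included. Each plant is assessed 3 weeks later using defined criteria.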

rapeseed = experiment: Test Example 4: effect on crop by soil treatment (symbol g); conditions: for g: rapeseed, effect grade on crop: 320 g/ha
Outline: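 Seeds were sown in spots on sterilized diluvial soil in a plastic box and covered with about 1.5 cm of soil. Plants were then grown in a greenhouse at 25° C. to 30° C.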

[7] = tested on: Echinochloa crus-galli var. crus-galli; experiment: Test Example 5: herbicidal effect by foliage application, plastic box (symbol H); conditions: 320 g/ha, 3 weeks after application
Outline: as §2

Apera spica-venti = experiment: Test Example 4: herbicidal effect by soil treatment (symbol L); conditions: for L: Apera spica-venti, herbicidal effect grade: 320 g/ha
Outline: as §1

[8] = application herbicide amount 320 g/ha

Row | Structure (SMILES) | F (Digitaria ciliaris) herbicidal effect grade (Digitaria ciliaris; [8]) | effect on crop b (directly sowed rice plant), grade 0-5 [1] | I: Avena fatua, herbicidal effect grade (Avena fatua) | N: Amaranthus retroflexus, herbicidal effect grade (Amaranthus retroflexus [2]) | J: Alopecurus myosuroides, herbicidal effect grade (Alopecurus myosuroides) | Herbicidal effect grade, A: Echinochloa oryzacola Vasing. [3] | Herbicidal effect grade, C: Monochoria vaginalis (Monochoria vaginalis [4]) | Q: Galium spurium, herbicidal effect grade (Galium spurium) | N (Amaranthus retroflexus) herbicidal effect grade (Amaranthus retroflexus [5]; [8]) | Herbicidal effect grade, C: Monochoria vaginalis (Monochoria vaginalis [6]) | herbicidal effect on E, grade 0-5 (Cyperus difformis) | g (rapeseed) effect on crop grade (rapeseed; [8]) | H: Echinochloa crus-galli var. crus-galli, herbicidal effect grade [7] | L (Apera spica-venti) herbicidal effect grade (Apera spica-venti; [8]) | F: Digitaria ciliaris, herbicidal effect grade (Digitaria ciliaris) | I: Avena fatua, herbicidal effect (criteria 0-5) (Avena fatua) | N: Amaranthus retroflexus, herbicidal effect (criteria 0-5) (Amaranthus retroflexus [2]) | J: Alopecurus myosuroides, herbicidal effect (criteria 0-5) (Alopecurus myosuroides) | Q: Galium spurium, herbicidal effect (criteria 0-5) (Galium spurium) | N: Amaranthus retroflexus, herbicidal effect grade (Amaranthus retroflexus [5]) | also measured
1 | CON=C(C)CC1CC(OC(=O)C2(C)CC2(Cl)Cl)=C(c2c(C)cc(C)cc2C)C1=O (stereo not shown) [1-036] | 5 (Herbicidal ratio of 90% or more (almost completely withered)) | 5 (Herbicidal ratio of 90% or more (almost completely withered)) | 5 (Herbicidal ratio of 90% or more (almost completely withered)) | 4 (Herbicidal ratio of 70% or higher and lower than 90%) | 5 (Herbicidal ratio of 90% or more (almost completely withered)) | 5 (Herbicidal ratio of 90% or more (almost completely withered)) | 1 (Herbicidal ratio of 5% or higher and lower than 20%) | 0 (Herbicidal ratio of 5% or lower (almost no effect)) | 5 (Herbicidal ratio of 90% or more (almost completely withered)) | 2 (Herbicidal ratio of 20% or higher and lower than 40%) | 5 (Herbicidal ratio of 90% or more (almost completely withered)) | 5 (Herbicidal ratio of 90% or more (almost completely withered)) | 5 (Herbicidal ratio of 90% or more (almost completely withered)) | 5 (Herbicidal ratio of 90% or more (almost completely withered)) |  |  |  |  |  |  | 
2 | CON=C(CC1CC(O)=C(c2c(C)cc(C)cc2C)C1=O)C1CCCC1 (stereo not shown) [1-078] |  | 5 (Herbicidal ratio of 90% or more (almost completely withered)) |  |  |  | 5 (Herbicidal ratio of 90% or more (almost completely withered)) | 0 (Herbicidal ratio of 5% or lower (almost no effect)) |  |  | 0 (Herbicidal ratio of 5% or lower (almost no effect)) | 0 (Herbicidal ratio of 5% or lower (almost no effect)) |  |  |  | 5 (Herbicidal ratio of 90% or more (almost completely withered)) | 1 (Herbicidal ratio of 5% or higher and lower than 20%) | 0 (Herbicidal ratio of 5% or lower (almost no effect)) | 4 (Herbicidal ratio of 70% or higher and lower than 90%) | 0 (Herbicidal ratio of 5% or lower (almost no effect)) | 0 (Herbicidal ratio of 5% or lower (almost no effect)) | g: rapeseed, effect grade on crop (rapeseed): 1 (Herbicidal ratio of 5% or higher and lower than 20%); H: Echinochloa crus-galli var. crus-galli, herbicidal effect (criteria 0-5) [7]: 5 (Herbicidal ratio of 90% or more (almost completely withered)); L: Apera spica-venti, herbicidal effect grade (Apera spica-venti): 4 (Herbicidal ratio of 70% or higher and lower than 90%)
3 | CON=C(CC1CC(O)=C(c2c(C)cc(C#C[Si](C)(C)C)cc2C)C1=O)C(C)C (stereo not shown) [9-005] |  |  | 5 (Herbicidal ratio of 90% or more (almost completely withered)) | 0 (Herbicidal ratio of 5% or lower (almost no effect)) | 4 (Herbicidal ratio of 70% or higher and lower than 90%) | 4 (Herbicidal ratio of 70% or higher and lower than 90%) | 0 (Herbicidal ratio of 5% or lower (almost no effect)) | 0 (Herbicidal ratio of 5% or lower (almost no effect)) |  | 0 (Herbicidal ratio of 5% or lower (almost no effect)) |  |  | 5 (Herbicidal ratio of 90% or more (almost completely withered)) |  |  |  |  |  |  |  | Herbicidal effect grade, F: Digitaria ciliaris (Digitaria ciliaris; [8]): 1 (Herbicidal ratio of 5% or higher and lower than 20%); b (directly sowed rice plant) effect on crop grade ([1]; Table 24): 4 (Herbicidal ratio of 70% or higher and lower than 90%); Herbicidal effect grade, N: Amaranthus retroflexus (Amaranthus retroflexus [5]; [8]): 0 (Herbicidal ratio of 5% or lower (almost no effect)); E herbicidal effect grade (Cyperus difformis; Table 24): 2 (Herbicidal ratio of 20% or higher and lower than 40%); Effect on crop grade, g: rapeseed (rapeseed; [8]): 0 (Herbicidal ratio of 5% or lower (almost no effect)); Herbicidal effect grade, L: Apera spica-venti (Apera spica-venti; [8]): 1 (Herbicidal ratio of 5% or higher and lower than 20%)
4 | CC(CC1CC(O)=C(c2c(C)cc(C)cc2C)C1=O)=NOCC(=O)N1CCOCC1 (stereo not shown) [1-025] | 5 (Herbicidal ratio of 90% or more (almost completely withered)) | 5 (Herbicidal ratio of 90% or more (almost completely withered)) | 5 (Herbicidal ratio of 90% or more (almost completely withered)) | 0 (Herbicidal ratio of 5% or lower (almost no effect)) | 5 (Herbicidal ratio of 90% or more (almost completely withered)) | 4 (Herbicidal ratio of 70% or higher and lower than 90%) | 0 (Herbicidal ratio of 5% or lower (almost no effect)) | 4 (Herbicidal ratio of 70% or higher and lower than 90%) | 0 (Herbicidal ratio of 5% or lower (almost no effect)) | 0 (Herbicidal ratio of 5% or lower (almost no effect)) | 5 (Herbicidal ratio of 90% or more (almost completely withered)) | 4 (Herbicidal ratio of 70% or higher and lower than 90%) | 4 (Herbicidal ratio of 70% or higher and lower than 90%) | 5 (Herbicidal ratio of 90% or more (almost completely withered)) |  |  |  |  |  |  | 
5 | CON=C(C)CC1CC(OC(=O)COc2ccc(Br)cc2)=C(c2c(C)cc(C)cc2C)C1=O (stereo not shown) [1-081] |  | 5 (Herbicidal ratio of 90% or more (almost completely withered)) |  |  |  | 5 (Herbicidal ratio of 90% or more (almost completely withered)) | 2 (Herbicidal ratio of 20% or higher and lower than 40%) |  |  | 3 (Herbicidal ratio of 40% or higher and lower than 70%) | 5 (Herbicidal ratio of 90% or more (almost completely withered)) |  |  |  | 5 (Herbicidal ratio of 90% or more (almost completely withered)) | 5 (Herbicidal ratio of 90% or more (almost completely withered)) | 5 (Herbicidal ratio of 90% or more (almost completely withered)) | 5 (Herbicidal ratio of 90% or more (almost completely withered)) | 0 (Herbicidal ratio of 5% or lower (almost no effect)) | 4 (Herbicidal ratio of 70% or higher and lower than 90%) | g: rapeseed, effect grade on crop (rapeseed): 4 (Herbicidal ratio of 70% or higher and lower than 90%); H: Echinochloa crus-galli var. crus-galli, herbicidal effect (criteria 0-5) [7]: 5 (Herbicidal ratio of 90% or more (almost completely withered)); L: Apera spica-venti, herbicidal effect grade (Apera spica-venti): 5 (Herbicidal ratio of 90% or more (almost completely withered))
